Values quoted from earlier work as cited in patent publication US10076471B2, “Antimicrobial denture” (University of Dammam, priority 2016, dated 2018).
≈ marks a conversion by molar mass, not a printed value.

System: Candida
Conditions: against Candida

COC1=CC(=O)c2ccccc2C1=O [Lawsone methyl ether, 2-methoxy-1,4-napthoquinone]
minimal fungicidal concentration: 1.25 µg/mL (≈ 6.64 µM)
